The record followed here is US8410178B2, “CIS 3,4-dihydroxy-2-(3-methylbutanoyl)-5-(3-methylbutyl)-4-(4-methylpentanoyl)cyclopent-2-en-1-derivatives, substantially enantiomerically pure compositions and methods” (KinDex Therapeutics, LLC, priority 2010, dated 2013).

Experiment [1] has as its target T1, peroxisome proliferator-activated receptor gamma (PPARγ) (Homo sapiens, UniProt P37231).
T1 sequence (P37231 1-505): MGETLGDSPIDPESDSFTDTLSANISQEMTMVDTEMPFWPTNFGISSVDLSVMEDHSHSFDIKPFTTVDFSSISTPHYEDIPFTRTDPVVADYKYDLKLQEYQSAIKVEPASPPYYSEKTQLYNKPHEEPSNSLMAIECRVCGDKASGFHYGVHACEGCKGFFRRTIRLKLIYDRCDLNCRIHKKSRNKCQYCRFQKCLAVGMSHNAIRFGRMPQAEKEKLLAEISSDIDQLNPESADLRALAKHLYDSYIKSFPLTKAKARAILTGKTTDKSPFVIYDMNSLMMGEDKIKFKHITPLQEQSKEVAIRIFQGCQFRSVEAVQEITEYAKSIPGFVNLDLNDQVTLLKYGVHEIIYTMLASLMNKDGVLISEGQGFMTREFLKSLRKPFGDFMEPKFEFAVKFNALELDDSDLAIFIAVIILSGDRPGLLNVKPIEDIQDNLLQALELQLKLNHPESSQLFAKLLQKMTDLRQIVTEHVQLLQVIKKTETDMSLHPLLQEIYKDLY
The experiment in a line: Competitive binding to PPARγ ([3H]rosiglitazone).

In experiment [2] the target is T2, angiotensin II receptor type II (AGTR2) (Homo sapiens, UniProt P50052).
T2 sequence (P50052 1-363): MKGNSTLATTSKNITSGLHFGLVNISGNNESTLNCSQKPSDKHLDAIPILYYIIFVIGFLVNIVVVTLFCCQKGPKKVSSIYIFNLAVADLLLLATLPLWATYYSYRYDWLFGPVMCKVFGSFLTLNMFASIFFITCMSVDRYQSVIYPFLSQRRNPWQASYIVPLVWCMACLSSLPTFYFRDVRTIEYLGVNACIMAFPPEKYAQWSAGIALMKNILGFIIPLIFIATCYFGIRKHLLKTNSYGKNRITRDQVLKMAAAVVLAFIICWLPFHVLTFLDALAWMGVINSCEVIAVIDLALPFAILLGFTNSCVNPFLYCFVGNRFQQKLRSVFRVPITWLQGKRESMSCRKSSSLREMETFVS
Put plainly: Competitive binding to AGTR2 ([125I]CGP 42112A). The following applies: binding target AGTR2; competitor ligand Angiotensin-II.

A further experiment concerns the target T3, PPARγ (Homo sapiens, UniProt P37231).
T3 sequence (P37231 1-505): T1 sequence (P37231 1-505)
The experiment in a line: PPARγ luciferase reporter assay. It counts as cell-based. The procedure: (§1) The functional effect of (+)-KDT501 on PPARα, PPARδ, and PPARγ activity was evaluated using a PPAR reporter assay (INDIGO Biosciences, PA). This assay utilizes non-human mammalian cells engineered to provide constitutive high level expression of PPARα, PPARδ, or PPARγ and containing a luciferase report gene specific to the appropriate PPAR. Following activation by agonist binding, PPAR induces expression of the luciferase reporter gene. Luciferase activity therefore provides a surrogate for measuring PPAR activity in agonist-treated cells.
(§2) Reporter cells were plated on a 96-well plate at 100 μL per well, and 100 μL of (+)-KDT501 at various final concentrations (25, 12.5, 6.25, 3.125, 1.56 and 0.78 μM) was added to each well. […] 0.1% DMSO was also used as a negative control for each assay. Plates are incubated for 20 hours in a humidified incubator at 37° C. and 5% CO2. After incubation, cell medium was discarded and the cells were treated with 100 μL of luciferase detection reagent for 15 minutes. Plates were analyzed using a luminometer (Victor2, Perkin Elmer). Average relative light unit (RLU) and standard deviation were analyzed using GraphPad Prism.
The PPAR activity assays were repeated as described above using both (+)-KDT501(12.5, 6.25, 3.125, 1.56, and 0.78 μM) and (−)-KDT501 (25, 12.5, 6.25, 3.125, 1.56, and 0.78 μM).
Background: A reporter such as luciferase makes a cellular process visible.

For the next experiment, the target named is T4, PPARα (Homo sapiens, UniProt Q07869).
T4 sequence (Q07869 1-468): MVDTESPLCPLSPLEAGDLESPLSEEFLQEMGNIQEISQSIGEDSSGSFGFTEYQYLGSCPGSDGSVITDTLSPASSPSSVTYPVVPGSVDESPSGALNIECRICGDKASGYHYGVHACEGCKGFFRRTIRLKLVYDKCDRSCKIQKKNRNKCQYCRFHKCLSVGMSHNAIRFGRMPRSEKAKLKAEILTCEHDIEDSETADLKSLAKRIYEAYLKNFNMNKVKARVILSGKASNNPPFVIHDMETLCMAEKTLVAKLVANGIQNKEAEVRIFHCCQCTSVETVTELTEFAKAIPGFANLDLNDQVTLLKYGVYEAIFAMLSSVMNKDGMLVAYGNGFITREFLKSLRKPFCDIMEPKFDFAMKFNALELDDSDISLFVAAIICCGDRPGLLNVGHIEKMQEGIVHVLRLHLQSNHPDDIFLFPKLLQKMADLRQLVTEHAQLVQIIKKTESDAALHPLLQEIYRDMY
Put plainly: PPARα luciferase reporter assay. It counts as cell-based. The settings on record: reporter cells, 20 hours. The procedure:
as §1, §2

In the next experiment the target is T5, PPARδ (Homo sapiens, UniProt Q03181).
T5 sequence (Q03181 1-441): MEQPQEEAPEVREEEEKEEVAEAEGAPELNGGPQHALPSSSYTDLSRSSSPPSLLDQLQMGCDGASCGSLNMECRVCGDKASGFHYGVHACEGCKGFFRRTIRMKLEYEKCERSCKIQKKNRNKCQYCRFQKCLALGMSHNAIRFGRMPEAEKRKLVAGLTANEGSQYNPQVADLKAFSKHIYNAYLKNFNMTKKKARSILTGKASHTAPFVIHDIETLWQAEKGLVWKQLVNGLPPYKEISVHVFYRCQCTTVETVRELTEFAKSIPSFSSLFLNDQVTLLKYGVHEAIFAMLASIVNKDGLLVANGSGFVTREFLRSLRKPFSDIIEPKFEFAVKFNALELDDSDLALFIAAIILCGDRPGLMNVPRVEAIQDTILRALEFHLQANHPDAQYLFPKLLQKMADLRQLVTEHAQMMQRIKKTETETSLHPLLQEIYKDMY
Put plainly: PPARδ luciferase reporter assay. The settings on record: reporter cells, 20 hours. Format: cell-based. The procedure: as §1, §2

In the next experiment the target is Human DAPK1 (Homo sapiens, UniProt P53355). Put plainly: DAPK1 activity, cell free kinase assay. The following applies: cell free assay. It counts as biochemical. The procedure: The effect of (+)-KDT501 and (−)-KDT501 on death-associated protein kinase 1 (DAPK1) activity was evaluated.
Human DAPK1 was incubated with 8 mM MOPS, pH 7.0, 0.2 mM EDTA, 250 μM ZIP peptide substrate ([…]), 10 mM MgOAc, and [γ-^33P-ATP] (specific activity approximately 500 cpm/pmol, concentration as required). (+)-KDT501 or (−)-KDT501 at varying concentrations (100, 30, 10, 1, 0.3, 0.1, 0.03, 0.01 μM) were added to the reaction mixture. The reaction was initiated by addition of the MgATP mix. After incubation for 40 minutes at room temperature, the reaction was stopped by addition of 3% phosphoric acid solution. 10 μL of reaction mixture was spotted onto a P30 filtermat, washed three times for five minutes in 75 mM phosphoric acid and once in methanol prior, then dried and subjected to scintillation counting.

Human DAPK1, sequence (P53355 whole entry): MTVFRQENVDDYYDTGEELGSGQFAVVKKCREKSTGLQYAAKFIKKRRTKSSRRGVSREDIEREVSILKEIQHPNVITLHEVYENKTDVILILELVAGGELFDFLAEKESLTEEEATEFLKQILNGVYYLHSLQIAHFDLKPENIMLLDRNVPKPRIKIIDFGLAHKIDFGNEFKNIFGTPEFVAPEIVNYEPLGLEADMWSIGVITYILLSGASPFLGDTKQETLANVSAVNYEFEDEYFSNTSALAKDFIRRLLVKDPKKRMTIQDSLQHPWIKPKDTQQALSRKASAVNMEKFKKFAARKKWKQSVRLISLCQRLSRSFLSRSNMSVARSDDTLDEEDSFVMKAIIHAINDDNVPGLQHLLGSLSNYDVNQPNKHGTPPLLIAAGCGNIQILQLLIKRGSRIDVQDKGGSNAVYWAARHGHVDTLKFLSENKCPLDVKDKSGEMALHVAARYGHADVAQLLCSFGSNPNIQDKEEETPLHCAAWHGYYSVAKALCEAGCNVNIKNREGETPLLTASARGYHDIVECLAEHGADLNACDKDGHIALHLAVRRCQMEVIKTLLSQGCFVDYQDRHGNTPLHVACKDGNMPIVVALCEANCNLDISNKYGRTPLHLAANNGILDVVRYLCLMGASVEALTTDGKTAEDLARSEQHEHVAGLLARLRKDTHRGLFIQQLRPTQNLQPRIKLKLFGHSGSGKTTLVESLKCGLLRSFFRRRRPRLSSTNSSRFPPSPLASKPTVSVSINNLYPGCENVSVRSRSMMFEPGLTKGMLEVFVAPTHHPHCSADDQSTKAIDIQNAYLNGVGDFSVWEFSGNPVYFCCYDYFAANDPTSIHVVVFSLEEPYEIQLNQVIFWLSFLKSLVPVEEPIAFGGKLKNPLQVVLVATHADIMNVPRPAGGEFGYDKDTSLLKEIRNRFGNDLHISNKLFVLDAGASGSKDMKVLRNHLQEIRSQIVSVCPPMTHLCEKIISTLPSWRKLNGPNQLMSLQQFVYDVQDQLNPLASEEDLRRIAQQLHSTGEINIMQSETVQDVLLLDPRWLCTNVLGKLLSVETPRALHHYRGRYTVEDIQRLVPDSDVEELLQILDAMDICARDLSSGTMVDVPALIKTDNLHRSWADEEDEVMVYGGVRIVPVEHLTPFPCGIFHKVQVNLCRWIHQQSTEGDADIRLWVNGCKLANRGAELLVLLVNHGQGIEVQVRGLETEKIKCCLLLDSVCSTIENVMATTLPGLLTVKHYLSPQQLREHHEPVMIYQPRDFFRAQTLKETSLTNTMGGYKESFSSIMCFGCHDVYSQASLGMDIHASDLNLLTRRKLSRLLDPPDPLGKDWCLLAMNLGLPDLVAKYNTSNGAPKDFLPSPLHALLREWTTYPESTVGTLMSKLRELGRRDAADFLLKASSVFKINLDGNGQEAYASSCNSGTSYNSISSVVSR

For `CC(C)CCC(=O)[C@]1(O)C(O)=C(C(=O)CC(C)C)C(=O)[C@H]1CCC(C)C` [(−)-KDT501], the IC50 is 30 µM in experiment [1], 32 µM in experiment [2] and 40.9 µM against Human DAPK1. For the same compound, the Ki in experiment [1] and in experiment [2] was 16 µM throughout. For the same compound, the nH is 1.1 in experiment [1] (binding target PPARγ, competitor ligand Rosiglitazone) and 0.9 in experiment [2]. For the same compound, the “PPARγ reporter activity (RLU)” value on PPARγ (concentration of test compound 3.13 μM) is given as 547 RLU; on PPARγ (concentration of test compound 6.25 μM), 972 RLU; on PPARγ (concentration of test compound 12.5 μM), 2407 RLU; on PPARγ (concentration of test compound 25 μM), 4244 RLU. Further, the PPARγ activity result at PPARγ (reporter cells, 20 hours) is listed as “increased PPARγ activity, but to a significantly lesser degree than (+)-KDT501”. For the same compound, the PPARα activity result on PPARα is on record as “little or no effect”. The PPARδ activity entry on PPARδ is listed as “little or no effect”.

What is called IC50 is the concentration at which inhibition is half-maximal. One may read the Ki as a measure of affinity in units of concentration, obtained from inhibition or displacement.
